In US20100029542A1, “PROTEIN STERILISATION BY RADIATION AND ADDITION OF A STABILISING COMPOSITION” (priority 2006, published 2010):
Read-outs that look alike come from different tables or passages of the source.

Key:
[1] = target: T1, human growth hormone (Homo sapiens, UniProt P01241); assay: Recovery of structural integrity of human growth hormone in dry formulations following gamma irradiation (HPLC); type: physicochemical; conditions: as excipient in the formulation, disulphide bridge, HPLC
T1 construct: purchased National Institute of Biological Standards and Control; further samples on prescription from a GP surgery
T1 sequence (P01241 27-217): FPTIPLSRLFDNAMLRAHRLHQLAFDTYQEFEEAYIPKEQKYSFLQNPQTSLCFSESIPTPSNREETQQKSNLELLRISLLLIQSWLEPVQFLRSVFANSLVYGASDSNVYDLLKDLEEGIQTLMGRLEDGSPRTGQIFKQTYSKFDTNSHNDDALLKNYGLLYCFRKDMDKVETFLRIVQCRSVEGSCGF

[2] = target: T2, glucose oxidase (Aspergillus niger, UniProt P13006); assay: Activity recovery of glucose oxidase in dry formulations following gamma irradiation; type: physicochemical; conditions: for Enzyme activity remaining after gamma-irradiation: glucose oxidase 350 μg mL^−1 prior to drying, dry, 25-40 kGy, ambient temperature
T2 construct: purchased Biocatalysts G575P
T2 sequence (P13006 17-605): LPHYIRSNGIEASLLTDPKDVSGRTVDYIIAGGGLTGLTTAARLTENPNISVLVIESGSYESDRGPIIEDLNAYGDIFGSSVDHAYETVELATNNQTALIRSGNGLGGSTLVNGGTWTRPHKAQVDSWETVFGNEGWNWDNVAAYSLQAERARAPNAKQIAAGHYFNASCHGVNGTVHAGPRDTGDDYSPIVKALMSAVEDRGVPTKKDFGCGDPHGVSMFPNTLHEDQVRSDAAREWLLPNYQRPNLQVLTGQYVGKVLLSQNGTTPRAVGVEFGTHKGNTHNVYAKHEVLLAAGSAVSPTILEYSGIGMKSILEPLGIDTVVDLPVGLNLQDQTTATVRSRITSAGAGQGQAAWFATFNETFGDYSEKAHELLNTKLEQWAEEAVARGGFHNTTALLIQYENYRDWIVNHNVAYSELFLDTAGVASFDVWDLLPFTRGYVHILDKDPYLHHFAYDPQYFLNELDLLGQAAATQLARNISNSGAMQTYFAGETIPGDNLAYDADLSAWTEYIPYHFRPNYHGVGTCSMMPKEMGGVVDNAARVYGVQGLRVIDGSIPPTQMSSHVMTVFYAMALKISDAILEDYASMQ
Experimental: (§1) In each example, an aqueous solution of a protein was prepared with selected additives in an Eppendorf tube or in a glass vial. Water was removed from the formulation by drying under a stream of nitrogen at 30° C. and subsequent incubation at atmospheric pressure in the presence of a dessicant. The Eppendorf tubes or the glass vials were sealed and delivered to an industrial sterilisation service for gamma irradiation, with a dose range typical for sterile medical products. The gamma-irradiated samples were reconstituted on their return and analysed for protein activity or structural integrity. The results were compared with those achieved using control (i.e. non-irradiated) samples.
(§2) The dry samples (approx. 20 μg in an Eppendorf tube) were gamma-irradiated by an industry-standard commercial sterilising service provided by Isotron PLC (Swindon, Wilts, UK), using a Cobalt 60 gamma source at ambient temperature. The radiation dose was in the range of 25-40 kGy.
(§3) The original solutions (i.e. solutions prior to drying) contained 350 μg mL^−1 of glucose oxidase and typically the total of 100 mM of protective compounds (i.e. 100 mM in case of a single compound, 50 mM+50 mM in case of two compounds, 33.3 mM+33.3 mM+33.3 mM in the case of three compounds etc.). The solutions were dried and gamma irradiated. Following the gamma irradiation, the samples, both pre- and post-gamma irradiated, were assayed for glucose oxidase activity. This was performed according to the following procedure:
Water was added to the sample to achieve 350 μg mL^−1 of glucose oxidase. 50 μL of the solution was added to 50 mL of deionised water. The following solutions were then added: • 10 mL of reagent mix (5 parts of 0.1 M sodium phosphate, pH 6+4 parts 2% w/w starch+1 part of 1 mg/mL lactoperoxidase enzyme); • 5 mL of 100 mM potassium iodide; and • 5 mL of 20% w/w glucose solution.
These were mixed together quickly. Time=0 was counted from the addition of the glucose. After 5 min, 1 ml of 5 M aq. hydrochloric acid was added to stop the reaction. The absorbance was then read at 630 nm using a Unicam UV-visible spectrophotometer (Type: Helios gamma). If the colour intensity was too great to allow an accurate reading, the sample was diluted with a defined volume of deionised water to bring the colour back on scale. The results were expressed as percentage recovery, by reference to the absorbance measured in the pre-gamma irradiation samples.

[3] = cited from earlier work; for Rate constant k: Table 1, singlet oxygen scavengers, measured in specified solvents
[4] = target: T1, human growth hormone; assay: Recovery of structural integrity of human growth hormone in dry formulations following gamma irradiation (HPLC); type: physicochemical; conditions: Table 7, singlet oxygen scavengers, structural integrity by HPLC, human growth hormone 2.5 mg mL^−1 prior to drying, 25-40 kGy
Experimental: as §1, §2
Mobile phase was prepared by mixing 71 parts (by volume) of a solution of TRIS (0.05 M, in water adjusted with hydrochloric acid to a pH of 7.5) and 29 parts (by volume) of n-propylalcohol. The mobile phase was filtered prior to its use. The liquid chromatograph (Agilent 1100 series) was equipped with a 214 nm detector and a 4.6×250 mm column (Phenomenex 00G-4167-E0) packed with butylsilyl silica gel with a granulometry of 5 μm and a porosity of 30 nm, maintained at 45° C. The flow rate was maintained at 0.5 mL min^−1. 15 μL of aqueous samples of human growth hormone (typically 1-2.5 mg mL^−1) were injected. Results were expressed as % of peak area corresponding to the gamma irradiated sample with respect to that measured in non-irradiated sample.

[5] = target: T3, catalase (Bos taurus, UniProt P00432); assay: Activity recovery of catalase in dry formulations following gamma irradiation; type: physicochemical, bovine; conditions: Table 6, singlet oxygen scavengers; catalase 100 μg mL^−1 prior to drying; dry; 25-40 kGy, ambient temperature
T3 construct: Catalase (from bovine liver, Sigma C9322, 2380 U /mg solid); purchased Sigma C9322; host or cells: bovine liver
T3 sequence (P00432 2-527 limits assumed): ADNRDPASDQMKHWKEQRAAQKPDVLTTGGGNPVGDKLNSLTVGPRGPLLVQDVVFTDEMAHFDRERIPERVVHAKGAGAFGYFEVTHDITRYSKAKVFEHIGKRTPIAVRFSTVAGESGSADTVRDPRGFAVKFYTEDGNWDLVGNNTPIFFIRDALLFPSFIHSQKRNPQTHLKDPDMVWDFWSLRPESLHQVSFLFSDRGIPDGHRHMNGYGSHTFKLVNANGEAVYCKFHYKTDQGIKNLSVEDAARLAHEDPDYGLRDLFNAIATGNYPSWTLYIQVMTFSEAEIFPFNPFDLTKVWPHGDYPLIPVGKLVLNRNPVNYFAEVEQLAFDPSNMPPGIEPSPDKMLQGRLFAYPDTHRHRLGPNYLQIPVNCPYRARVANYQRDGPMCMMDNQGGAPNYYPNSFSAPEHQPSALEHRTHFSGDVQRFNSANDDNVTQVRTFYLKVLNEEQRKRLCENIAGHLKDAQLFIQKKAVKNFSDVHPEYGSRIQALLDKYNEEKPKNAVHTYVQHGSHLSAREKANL
Experimental: as §1, §2
as §3, with “contained 100” for “contained 350”, “of catalase” for “of glucose oxidase”
Water was added to the sample to achieve 100 μg mL^−1 of catalase. 100 μL of the solution was added to a mixture of 18 mL of PBS and 2 mL of hydrogen peroxide (30 mM in water) in a 125 mL polypropylene pot and mixed. The resulting mixture was incubated at room temperature precisely for 30 min. In the meantime, the following reagents were mixed in a plastic cuvette for spectrophotometric measurements: • 2.73 mL of citrate/phosphate buffer (0.1 M, pH 5.0) • 100 μL of tetramethylbenzidine (TMB) (3 mg/mL, dissolved in dimethyl sulphoxide (DMSO)) • 100 μL of lactoperoxidase
Following the 30 min incubation period, 70 μL of the catalase containing mixture was added to the cuvette and absorbance was read in approximately 30 s. The results were expressed as percentage recovery, by reference to the absorbance measured in the fresh samples (i.e. prior to incubation at increased temperature).

[6] = tested on: Sandostatin; assay: Recovery of structural integrity of Sandostatin in dry formulations following gamma irradiation (HPLC); type: physicochemical; conditions: Table 8, singlet oxygen scavengers, structural integrity by HPLC, excipient:Sandostatin weight ratio 10:1, 25-40 kGy
Experimental: as §1, §2
Mobile phase A was 0.1 M triethylamine adjusted to pH 2.3 with phosphoric acid. Mobile phase B was acetonitrile. The mobile phases were filtered prior to their use. The following linear gradient was used: time 0: 90% A+10% B; time 35 min: 60% A+40% B. The liquid chromatograph (Agilent 1100 series) was equipped with a 214 nm detector, guard column and a 4.6×150 mm C18 column with a granulometry of 5 μm and a porosity of 30 nm, maintained at ambient temperature. The flow rate was maintained at 1.0 mL min^−1. Injection volume was 50 μL (typically sandostatin at 200 μg mL^−1). Results were expressed as % of main peak area (i.e. area of the peak corresponding to intact sandostatin measured in the gamma irradiated sample with respect to that measured in non-irradiated sample of identical composition). A chromatogram of a standard solution of sandostatin was recorded after every 12 samples to ensure that no drift in the position of the major peak had occurred. The control measurements ruled out any ambiguity in interpreting the chromatograms.

SMILES: N[C@@H](CS)C(=O)O [Cysteine]
- Compatibility of the compound with human growth hormone [1]: **Compound was found incompatible with human growth hormone
- Compatibility of the compound with human growth hormone ([1]; listed as cysteine): incompatibility with human growth hormone
- Enzyme activity remaining after gamma-irradiation ([2]; Table 3, prior-art antioxidants, vs non-irradiated): 49.1%
- Rate constant k [3]: k = 5 × 10^7 L mol^−1 s^−1

SMILES: CC(=O)N[C@@H](CS)C(=O)O [N-Acetylcysteine]
- Compatibility of the compound with human growth hormone [1]: **Compound was found incompatible with human growth hormone
- Compatibility of the compound with human growth hormone ([1]; listed as N-acetylcysteine): incompatibility with human growth hormone
- Compatibility of the compound with glucose oxidase ([2]; as excipient in the formulation): **Compound was found incompatible with glucose oxidase

SMILES: N[C@@H](Cc1c[nH]c2ccccc12)C(=O)O [Tryptophan]
- Structural integrity remaining after gamma-irradiation (HPLC) [4]: 54.6%
- Enzyme activity remaining after gamma-irradiation ([2]; Table 5, singlet oxygen scavengers): 37.0%
- Enzyme activity remaining after gamma-irradiation [5]: 9.1%
- Rate constant k [3]: k = 1.3 × 10^7 L mol^−1 s^−1
- Rate of reaction with singlet oxygen ([3]; Table 5): 1.3e+07 L/mol/s
- Rate of reaction with singlet oxygen ([3]; Table 6): 1.3e+07 L/mol/s
- Rate of reaction with singlet oxygen ([3]; Table 7): 1.3e+07 L/mol/s
- Rate of reaction with singlet oxygen ([3]; Table 8): 1.3e+07 L/mol/s
- Enzyme activity remaining after gamma-irradiation [6]: 82.2%
